Assays:
[1] = Alkaloid partition coefficients, pH 3.0 (mixing cylinder liquid extraction of opium filtrate, HPLC assay of layers); type: physicochemical
Excerpt: The next part of the experiment was to test various solvents to identify possible candidates for liquid extraction so that the alkaloids can be separated and purified. There was fifty (50) milliliters of filtrate and fifty (50) milliliters of solvent were charged to one hundred (100) milliliter mixing cylinders. The one hundred (100) milliliter cylinders were shaken for thirty (30) seconds at approximately one (1) shake per second. The one hundred (100) milliliter mixing cylinders were allowed to settle, and the locations of the bottom and top of the rag layer were recorded over time. The results for one trial of the hydrochloric acid extraction of opium is presented in Table 2, and the results of one trial of acetic acid extraction is presented in Table 3. The four solvents used were toluene, hexane, n-butanol (n-BuOH), and isopentyl alcohol (i-C5OH).
After the mixing cylinder studies were completed, the layers were sampled for High Pressure Liquid Chromatography (HPLC) assay and partition coefficients were obtained for each of the systems.

[2] = Stability of alkaloids in the acid digest of opium suspension at pH 3.0, room temperature; conditions: pH 3.0, up to 96 hours
Protocol: The purpose of Experiment I was to obtain side-by-side data of the performance of hydrochloric acid in relationship to acetic acid. The acid digestion occurred at room temperature for 96 hours. The opium suspensions were sampled at intervals, and assays were performed to test the rate of extraction of alkaloids from the opium.
The opium was dispersed by adding one liter of deionized water and 238 grams of opium to the blender. The blender was processed on “puree.” This is at 14,046 RPM, or a Reynold's number of 725,791 for two (2) minutes. The slurry was divided between two Erlenmeyer flasks. A tar ball remained in the bottom of the blender. The next step was to add 100 milliliters of water. The blender was then set to “liquefy.” This is at 20,495 RPM, or a Reynold's number of 991,216 for thirty (30) seconds. There was not an even distribution between the two Erlenmeyer flasks. This was followed by returning all of the slurry to the blender and processed on “liquefy” for an additional ten (10) seconds. The slurry was then split between the two Erlenmeyer flasks. The slurry was very frothy in appearance. The pH of each Erlenmeyer flask was adjusted to 3.0. In one Erlenmeyer flask, the pH was adjusted with hydrochloric acid (37%), and in the other Erlemneyer flask, the pH was adjusted with glacial acetic acid. […]

[3] = Alkaloid partition coefficients, pH 9.0 (acetic acid opium extract and organic solvent, equal volumes)
Protocol: Some experiments were conducted with solvents to investigate liquid extraction to purify or separate the alkaloids. In these experiments, the aliquot of solvent layer was allowed to evaporate to dryness prior to diluting to volume with the dilute acetic acid. The aliquots were evaporated in this manner to eliminate the effect of solvents on retention time and the peak shape of the chromatography assays. Partition coefficients were obtained by dividing the concentration of the alkaloid in the organic layer by the concentration of the alkaloid in the aqueous layer. The disappearance of the rag layer following liquid extraction was done by filing a mixing container, e.g., cylinder, with the aqueous solution and the solvent. The mixing container, e.g., cylinder is then sealed with a stopper and shook for a predetermined time interval at a certain rate and then recording the interface levels over time.
The phases were allowed to separate, and aliquots of each layer were taken.

[4] = system BuOH/HCl (n-butanol, hydrochloric acid extract)
[5] = system BuOH/HOAc (n-butanol, acetic acid extract)
[6] = system CHCL3/HCl (chloroform, hydrochloric acid extract)
[7] = system CHCL3/HOAc (chloroform, acetic acid extract)
[8] = system I-pentyl/HCL (isopentyl alcohol, hydrochloric acid extract)
[9] = system I-pentyl/HOAc (isopentyl alcohol, acetic acid extract)

In the case of `CN1CC[C@]23c4c5ccc(O)c4O[C@H]2[C@@H](O)C=C[C@H]3[C@H]1C5` [Morphine, morphine], the “Portion of morphine originally present that decomposed” value (after 24 hours, extraction with butanol at pH 9.0 (FIG. 3)) is reported as “about half” and the “Decomposition during the extraction step” value (alkaline extraction with n-butanol and i-pentyl alcohol, pH 9.0, room temperature) is reported as “decomposed”.

In the case of `COc1ccc2c3c1O[C@H]1[C@@H](O)C=C[C@H]4[C@@H](C2)N(C)CC[C@@]341` [Codeine, codeine], the “Alkaloid partition coefficient (concentration in organic layer / concentration in aqueous layer)” value [1, 4] is reported as 0.1374, the “Alkaloid partition coefficient (concentration in organic layer / concentration in aqueous layer)” value [1, 5] is reported as 0.2277 and the “Alkaloid partition coefficient (concentration in organic layer / concentration in aqueous layer)” value [1, 6] is reported as 0.0074. For the same molecule, the “Alkaloid partition coefficient (concentration in organic layer / concentration in aqueous layer)” value [1, 7] was 0.0341, the “Alkaloid partition coefficient (concentration in organic layer / concentration in aqueous layer)” value [1, 8] was 0.0181 and the “Alkaloid partition coefficient (concentration in organic layer / concentration in aqueous layer)” value [1, 9] was 0.0319. For the same molecule, the “Stability (loss of alkaloid) in solution” value [2] was “does not appear to be any significant loss”, the Alkaloid partition coefficient ([3]; system BuOH/HOAc) was 18.9714 and the Alkaloid partition coefficient ([3]; system Hexane/HOAc) was 0.0735. The Alkaloid partition coefficient ([3]; system I-pentyl/HOAc) was 19.6646 and the Alkaloid partition coefficient ([3]; system Toluene/HOAc) was 5.3686.

In the case of `COC1=CC=C2[C@H]3Cc4ccc(OC)c5c4[C@@]2(CCN3C)[C@H]1O5` [Thebaine, thebaine], the “Alkaloid partition coefficient (concentration in organic layer / concentration in aqueous layer)” value [1, 4] is reported as 0.4312, the “Alkaloid partition coefficient (concentration in organic layer / concentration in aqueous layer)” value [1, 5] is reported as 0.6351 and the “Alkaloid partition coefficient (concentration in organic layer / concentration in aqueous layer)” value [1, 6] is reported as 0.5363. For the same molecule, the “Alkaloid partition coefficient (concentration in organic layer / concentration in aqueous layer)” value [1, 7] was 1.5273, the “Alkaloid partition coefficient (concentration in organic layer / concentration in aqueous layer)” value [1, 8] was 0.1053 and the “Alkaloid partition coefficient (concentration in organic layer / concentration in aqueous layer)” value [1, 9] was 0.1548. For the same molecule, the “Stability (loss of alkaloid) in solution” value [2] was “does not appear to be any significant loss”, the Alkaloid partition coefficient ([3]; system BuOH/HOAc) was 34.7434 and the Alkaloid partition coefficient ([3]; system Hexane/HOAc) was 1.8589. It also gave an Alkaloid partition coefficient ([3]; system I-pentyl/HOAc) of 55.5035 and an Alkaloid partition coefficient ([3]; system Toluene/HOAc) of 154.6710.

Reference: US7495098B2, “Extraction of alkaloids from opium” (Mallinckrodt Inc, priority 2004, dated 2009)
